Experimental data published in US6080724A, “Peptides which can be used as vectors for the intracellular addressing of active molecules” (Centre National de la Recherche Scientifique (CNRS), priority 1995, dated 2000).

Tested on: E15 cortex and striatum cells
Assay: Cellular localization of biotinylated peptides by confocal microscopy (fluorescent streptavidin)
Assay type: cell-based
Conditions: 2 h
Description: The cells were then washed, fixed and stained with fluorescent streptavidin.
The entry of the peptides of Table II was tested only by confocal microscopy; indeed, the absence of lysine in these peptides makes the attachments very difficult and therefore requires a very rapid observation which is incompatible with transfers onto filters or ELISA tests (multiple washes).
The E15 cortex and striatum cells are cultured on glass coverslips at a density of 25,000 cells/cm^2 for 2 days. The peptides are all added at a final concentration of 20 μM. […] The sections observed by confocal microscopy are presented in FIGS. 3 (37° C.) and 4 (4° C.). The cells which have integrated the peptide appear fluorescent, on a black background.
E15 cortex and striatum cells are cultured on glass coverslips at a density of 25,000 cells/cm^2 for 2 days. The peptides are added at a final concentration of 20 μM for peptide 43-58 and of 2 μM for the others and the cells are incubated for 2 h at 37° C. […] The results are illustrated in FIG. 6.

Substance	internalization (20 μM, 37° C. and 4° C.)	nuclear addressing (20 μM, 37° C. and 4° C.)	internalization and cytoplasmic and nuclear addressing (localization) (2 μM, 37° C., streptavidin-FITC)
Biot-Apa-Arg-Gln-Pro-Lys-Ile-Trp-Phe-Pro-Asn-Arg-Arg-Lys-Pro-Trp-Lys-Lys [3Pro]	does not prevent internalization	appears to interfere with nuclear addressing	–
Biot-Apa-Arg-Leu-Arg-Arg-Leu-Leu-Arg-Arg-Leu-Leu-Arg-Arg-Leu-Arg-Arg [L/R]	–	–	found in a fraction which is apparently of the vesicular type, probably of endocytic character
